According to patent US20090036455A1, “ARYLPIPERAZINE DERIVATIVE AND USE THEREOF AS 5-HT1A RECEPTOR LIGANDS” (CEPA SCHWARZ PHARMA, S.L., priority 2004, published 2009):
Counter-ions that a name gives are not always drawn. Like-named read-outs stand apart in the source and are kept apart here.

Key:
[1] = target: T1, 5-HT1A receptor (Rattus norvegicus, UniProt P19327); experiment: Radioligand binding assay, 5-HT1A receptor ([3H]-8-OH-DPAT, rat cerebral cortex membranes); conditions: for binding to the 5-HT1A receptor (in words): see table 1
T1 construct: The cerebral cortex was homogenized in 10 volumes of ice-cold Tris buffer; from tissue; host or cells: rat cerebral cortex membranes
T1 sequence (P19327 1-422): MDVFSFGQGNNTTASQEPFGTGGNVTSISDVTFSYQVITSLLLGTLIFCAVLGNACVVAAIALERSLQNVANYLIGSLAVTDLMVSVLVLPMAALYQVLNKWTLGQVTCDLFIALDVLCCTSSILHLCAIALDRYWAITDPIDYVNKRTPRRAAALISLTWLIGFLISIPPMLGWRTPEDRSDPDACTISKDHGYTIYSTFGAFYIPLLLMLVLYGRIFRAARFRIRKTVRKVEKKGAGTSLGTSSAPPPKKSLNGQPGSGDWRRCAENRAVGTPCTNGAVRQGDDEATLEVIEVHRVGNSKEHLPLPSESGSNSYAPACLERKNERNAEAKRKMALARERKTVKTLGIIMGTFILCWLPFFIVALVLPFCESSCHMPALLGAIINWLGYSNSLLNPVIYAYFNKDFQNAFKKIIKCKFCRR
Procedure: (§1) For all receptor binding assays, male Sprague-Dawley rats (Rattus norvegicus albinus), weighing 180-200 g, were killed by decapitation and the brains rapidly removed and dissected. Tissues were stored at −80° C. for subsequent use and homogenized on a Polytron PT-10 homogenizer. Membrane suspensions were centrifuged on a Beckman J2-HS instrument.
The cerebral cortex was homogenized in 10 volumes of ice-cold Tris buffer (50 mM Tris-HCl, pH 7.7 at 25° C.) and centrifuged at 28000 g for 15 min. The membrane pellet was washed twice by resuspension and centrifugation. After the second wash the resuspended pellet was incubated at 37° C. for 10 min. Membranes were then collected by centrifugation and the final pellet was resuspended in 50 mM Tris-HCl, 5 mM MgSO4, and 0.5 mM EDTA buffer (pH 7.4 at 37° C.). Fractions of 100 μL of the final membrane suspension (about 1 mg of protein) were incubated at 37° C. for 15 min with 0.6 nM [^3]-8-OH-DPAT (133 Ci/mmol), in the presence or absence of the competing drug, in a final volume of 1.1 mL of assay buffer (50 mM Tris-HCl, 10 nM clonidine, 30 nM prazosin, pH 7.4 at 37° C.). Nonspecific binding was determined with 10 μM 5-HT.
(§2) For all binding assays, competing drug, nonspecific, total and radioligand bindings were defined in triplicate. Incubation was terminated by rapid vacuum filtration through Whatman GF/B filters, presoaked in 0.05% poly(ethylenimine), using a Brandel cell harvester. The filters were then washed with the assay buffer, dried and placed in poly(ethylene) vials to which were added 4 mL of a scintillation cocktail (Aquasol). The radioactivity bound to the filters was measured by liquid scintillation spectrometry. The data were analyzed by an iterative curve-fitting procedure (program Prism, Graph Pad), which provided IC50, Ki, and r^2 values for test compounds, Ki values being calculated from the Cheng and Prusoff equation. The protein concentrations of the rat cerebral cortex and the rat striatum were determined by the method of Lowry, using bovine serum albumin as the standard.

[2] = system: α1 adrenoceptor; experiment: Radioligand binding assay, α1 adrenoceptor ([3H]prazosin, rat cerebral cortex membranes); conditions: for percent value (α1) / Ki: rat cerebral cortex membranes; for percent value (α1): [3H]prazosin, footnote to * not given; for Ki: 0.2 nM [3H]prazosin, hydrochloride salts, read-out: Ki ± SEM (α1); for binding to the α1 adrenoceptor (in words): see table 1
Procedure: as §1
The cerebral cortex was homogenized in 20 volumes of ice-cold buffer (50 mM Tris-HCl, 10 mM MgCl2, pH 7.4 at 25° C.) and centrifuged at 30000 g for 15 min. Pellets were washed twice by resuspension and centrifugation. Final pellets were resuspended in the same buffer. Fractions of the final membrane suspension (about 250 μg of protein) were incubated at 25° C. for 30 min with 0.2 nM [^3H]prazosin (23 Ci/mmol), in the presence or absence of six concentrations of the competing drug, in a final volume of 2 mL of buffer. Nonspecific binding was determined with 10 μM phentolamine.
as §2

[3] = rat cerebral cortex membranes, 0.6 nM [3H]-8-OH-DPAT, hydrochloride salts, read-out: Ki ± SEM (5-HT1A)

SMILES | Ki [1, 3] | percent value (α1) [2] | Ki [2] | other results
COc1cccc(N2CCN(CCCN3C(=O)C4CCCN4C3=O)[C@@H](C)C2)c1 (mixture of isomers) [(j), (2S,7aRS)-(+)-2-[3-[4-(3-Methoxyphenyl)-2-methylpiperazin-1-yl]propyl]-1,3-dioxoperhydropyrrolo[1,2-c]imidazole] | 21.9 ± 5.1 nM | 56%* | – | –
O=C1C2CCCN2C(=O)CN1CCCCN1CCN(c2cccc3c2OCCCO3)CC1 (centres unmarked) [Compound (h), 2-[4-[4-(3,4-Dihydro-2H-1,5-benzodioxepin-6-yl)piperazin-1-yl]butyl]-1,4-dioxoperhydropyrrolo[1,2-a]pyrazine] | 3.1 ± 0.9 nM | – | 348 ± 21 nM | binding to the 5-HT1A receptor (in words) [1]: low nanomolar range; binding to the α1 adrenoceptor (in words) [2]: nanomolar range
CC[C@@H]1CN(c2cccc3ccccc23)CCN1CCCCN1C(=O)C2CCCN2C1=O (mixture of isomers) [(l), (2R,7aRS)-(−)-2-[4-[2-Ethyl-4-(naphth-1-yl)piperazin-1-yl]butyl]-1,3-dioxoperhydropyrrolo [1,2-c]imidazole] | 2.4 ± 0.3 nM | 87%* | – | –
C[C@@H]1CN(c2cccc3ccccc23)CCN1CN1CC(=O)N2CCC[C@@H]2C1=O [(c), (2R,8aR)-2-[[4-(Naphth-1-yl)-2-methylpiperazin-1-yl]methyl]-1,4-dioxoperhydropyrrolo[1,2-a]pyrazine] | 9.5 ± 2.2 nM | – | > 1000 nM | –
C[C@H]1CN(c2cccc3nc[nH]c23)CCN1CCCCN1C(=O)C2CCCN2C1=O (mixture of isomers) [(r), (2S,7aRS)-(+)-2-[4-[4-(Benzimidazol-4-yl)-2-methylpiperazin-1-yl]butyl]-1,3-dioxoperhydropyrrolo[1,2-c]imidazole] | 4.1 ± 0.3 nM | – | > 1000 nM | –
C[C@@H]1CN(c2cccc3ccccc23)CCN1CN1CC(=O)N2CCC[C@H]2C1=O [(e), (2R,8aS)-2-[[4-(Naphth-1-yl)-2-methylpiperazin-1-yl]methyl]-1,4-dioxoperhydropyrrolo[1,2-a]pyrazine] | 6.3 ± 0.2 nM | – | > 1000 nM | –
C[C@@H]1CN(c2cccc(Cl)c2)CCN1CCCN1C(=O)C2CCCN2C1=O (mixture of isomers) [(i), (2R,7aRS)-(−)-2-[3-[4-(3-Chlorophenyl)-2-methylpiperazin-1-yl]propyl]-1,3-dioxoperhydropyrrolo[1,2-c]imidazole] | 11.7 ± 3.4 nM | 76%* | – | –
C[C@@H]1CN(c2cccc3nc[nH]c23)CCN1CCCCN1C(=O)C2CCCN2C1=O (mixture of isomers) [(m), (2R,7aRS)-(−)-2-[4-[4-(Benzimidazol-4-yl)-2-methylpiperazin-1-yl]butyl]-1,3-dioxoperhydropyrrolo[1,2-c]imidazole] | 2.3 ± 0.3 nM | – | > 1000 nM | –
C[C@H]1CN(c2cccc3ccccc23)CCN1CN1CC(=O)N2CCC[C@@H]2C1=O [(f), (2S,8aR)-2-[[4-(Naphth-1-yl)-2-methylpiperazin-1-yl]methyl]-1,4-dioxoperhydropyrrolo[1,2-a]pyrazine] | 6.4 ± 0.1 nM | – | > 1000 nM | –
C[C@H]1CN(c2cccc3ccccc23)CCN1CN1CC(=O)N2CCC[C@H]2C1=O [(d), (2S,8aS)-2-[[4-(Naphth-1-yl)-2-methylpiperazin-1-yl]methyl]-1,4-dioxoperhydropyrrolo[1,2-a]pyrazine] | 2.5 ± 0.1 nM | – | > 1000 nM | –
O=C1C2CCCN2C(=O)CN1CCCCN1CCN(c2cccc3ccccc23)CC1 (centres unmarked) [Compound (g), 2-[4-[4-(Naphth-1-yl)piperazin-1-yl]butyl]-1,4-dioxoperhydropyrrolo[1,2-a]pyrazine] | 0.5 ± 0.2 nM | – | 8 ± 1.7 nM | binding to the 5-HT1A receptor (in words) [1]: picomolar range; binding to the α1 adrenoceptor (in words) [2]: low nanomolar range
C[C@H]1CN(c2ccccc2)CCN1CCCCN1C(=O)C2CCCN2C1=O (mixture of isomers) [(q), (2S,7aRS)-(+)-2-[4-[2-Methyl-4-phenylpiperazin-1-yl]butyl]-1,3-dioxoperhydropyrrolo[1,2-c]imidazole] | 22.1 ± 0.1 nM | 62%* | – | –
O=C1C2CCCN2C(=O)CN1CCCCN1CCN(c2cccc3ccccc23)CC1 (centres unmarked) (as salt: hydrochloride) [Compound (g), 2-[4-[4-(Naphth-1-yl)piperazin-1-yl]butyl]-1,4-dioxoperhydropyrrolo[1,2-a]pyrazine] | – | – | – | melting point: 277 to 280 °C (dec.)
C[C@H]1CN(c2cccc3ccoc23)CCN1CCCCN1C(=O)[C@@H]2CCCN2C1=O [(n), (2S,7aS)-(+)-2-[4-[4-(1-Benzofuran-7-yl)-2-methylpiperazin-1-yl]butyl]-1,3-dioxoperhydropyrrolo[1,2-c]imidazole] | 1.6 ± 0.4 nM | 75%* | – | –
C[C@H]1CN(c2ccc([N+](=O)[O-])c3ccccc23)CCN1CCCCN1C(=O)C2CCCN2C1=O (mixture of isomers) [(s), (2S,7aRS)-(+)-2-[4-[2-Methyl-4-(4-nitronaphth-1-yl)piperazin-1-yl]butyl]-1,3-dioxoperhydropyrrolo[1,2-c]imidazole] | – | 66%* | – | percent value marked * in column Ki ± SEM (5-HT1A) ([1]; rat cerebral cortex membranes, [3H]-8-OH-DPAT, footnote to * not given): 87%*
O=C1C2CCCN2C(=O)CN1CCCCN1CCN(c2cccc3c2OCCCO3)CC1 (centres unmarked) (as salt: hydrochloride) [Compound (h), 2-[4-[4-(3,4-Dihydro-2H-1,5-benzodioxepin-6-yl)piperazin-1-yl]butyl]-1,4-dioxoperhydropyrrolo[1,2-a]pyrazine] | – | – | – | melting point: 212 to 213 °C (dec.)
Cc1ccc(N2CCN(CCCCN3C(=O)C4CCCN4C3=O)[C@@H](C)C2)c2ccccc12 (mixture of isomers) [(p), (2S,7aRS)-(+)-2-[4-[2-Methyl-4-(4-methylnaphth-1-yl)piperazin-1-yl]butyl]-1,3-dioxoperhydropyrrolo[1,2-c]imidazole] | – | 75%* | – | Ki [1]: 15.3 ± 0.8 nM
C[C@H]1CN(c2cccc3ccoc23)CCN1CCCN1C(=O)C2CCCN2C1=O (mixture of isomers) [(k), (2S,7aRS)-(−)-2-[3-[4-(1-Benzofuran-7-yl)-2-methylpiperazin-1-yl]propyl]-1,3-dioxoperhydropyrrolo[1,2-c]imidazole] | 6.7 ± 0.5 nM | 64%* | – | –
C[C@@H]1CN(c2cccc3ccccc23)CCN1CCCCN1CC(=O)N2CCCC2C1=O (mixture of isomers) [(a), (2R, 8aRS)-2-[4-[4-(Naphth-1-yl)-2-methylpiperazin-1-yl]butyl]-1,4-dioxoperhydropyrrolo[1,2-a]pyrazine] | 4.2 ± 0.9 nM | – | 20.1 ± 0.8 nM | –
C[C@H]1CN(c2cccc3ccccc23)CCN1CCCCN1CC(=O)N2CCCC2C1=O (mixture of isomers) [(b), (2S, 8aRS)-2-[4-[4-(Naphth-1-yl)-2-methylpiperazin-1-yl]butyl]-1,4-dioxoperhydropyrrolo[1,2-a]pyrazine] | 15.3 ± 1.8 nM | – | 34.4 ± 1.2 nM | –
CC[C@@H]1CN(c2cccc(OC)c2)CCN1CCCCN1C(=O)C2CCCN2C1=O (mixture of isomers) [(o), (2R,7aRS)-(−)-2-[4-[2-Ethyl-4-(3-methoxyphenyl)piperazin-1-yl]butyl]-1,3-dioxoperhydropyrrolo[1,2-c]imidazole] | 21 ± 3 nM | 64%* | – | –
